Three compounds from US20240261274A1, “TREATMENT OF MYC-DRIVEN CANCERS WITH GSPT1 DEGRADERS” (MONTE ROSA THERAPEUTICS, INC., priority 2021, published 2024) can be followed below.

Experiment [1] deals with T1, Full length wild-type cereblon CRBN (Homo sapiens, UniProt Q96SW2).
T1 construct: Full length wild-type cereblon CRBN (80.0 nM, 10 μL) was incubated in assay buffer
Put plainly: Fluorescence polarization (FP) assay indicating cereblon binding. The following applies: bound stated; read-out: IC50 value. The method, boiled down: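 Full-length wild-type CRBN at 80.0 nM was preincubated 30 min at room temperature with compound (12-point curve, 300–0.937 or 3000–9.3 nM) in 20 mM HEPES pH 8.0, 150 NaCl, 0.5 mM TCEP, 0.05% Tween 20. Cy5-type thalidomide-based probe added at 5 nM final; FP read after 12 h (ex 590/em 675 nm), normalized to DMSO, IC50 fitted.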

The target in the next experiment is T2, IKZF1 (Homo sapiens, UniProt Q13422+Q96SW2).
T2 construct: endogenous in cells; host or cells: MM1 S (ATCC CRL-2974)
T2 sequence (Q13422 whole entry): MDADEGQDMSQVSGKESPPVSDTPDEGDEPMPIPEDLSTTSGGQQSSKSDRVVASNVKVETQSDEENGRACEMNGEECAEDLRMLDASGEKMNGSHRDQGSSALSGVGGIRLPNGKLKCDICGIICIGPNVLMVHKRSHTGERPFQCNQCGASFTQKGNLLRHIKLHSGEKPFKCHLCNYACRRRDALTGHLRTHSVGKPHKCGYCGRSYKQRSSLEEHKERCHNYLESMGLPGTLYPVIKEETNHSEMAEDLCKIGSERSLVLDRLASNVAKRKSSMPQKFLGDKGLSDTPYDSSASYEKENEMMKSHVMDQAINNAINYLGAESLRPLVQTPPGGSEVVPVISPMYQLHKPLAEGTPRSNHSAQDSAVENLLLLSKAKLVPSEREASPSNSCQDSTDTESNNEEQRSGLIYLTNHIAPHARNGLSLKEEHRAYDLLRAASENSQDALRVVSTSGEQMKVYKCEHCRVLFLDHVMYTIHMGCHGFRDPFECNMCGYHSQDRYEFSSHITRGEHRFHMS
T2 sequence (Q96SW2 whole entry): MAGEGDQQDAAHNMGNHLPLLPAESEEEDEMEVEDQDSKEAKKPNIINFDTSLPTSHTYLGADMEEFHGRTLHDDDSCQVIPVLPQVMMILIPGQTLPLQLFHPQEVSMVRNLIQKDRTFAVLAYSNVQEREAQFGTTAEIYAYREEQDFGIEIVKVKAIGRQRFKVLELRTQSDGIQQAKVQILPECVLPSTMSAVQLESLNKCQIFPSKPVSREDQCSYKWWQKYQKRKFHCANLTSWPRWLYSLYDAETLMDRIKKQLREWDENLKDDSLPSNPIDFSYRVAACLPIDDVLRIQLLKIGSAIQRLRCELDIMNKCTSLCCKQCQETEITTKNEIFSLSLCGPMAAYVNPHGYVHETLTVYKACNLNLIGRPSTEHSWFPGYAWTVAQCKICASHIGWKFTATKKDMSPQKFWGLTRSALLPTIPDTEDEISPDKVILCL
T2 sequence (Q16531 whole entry partner): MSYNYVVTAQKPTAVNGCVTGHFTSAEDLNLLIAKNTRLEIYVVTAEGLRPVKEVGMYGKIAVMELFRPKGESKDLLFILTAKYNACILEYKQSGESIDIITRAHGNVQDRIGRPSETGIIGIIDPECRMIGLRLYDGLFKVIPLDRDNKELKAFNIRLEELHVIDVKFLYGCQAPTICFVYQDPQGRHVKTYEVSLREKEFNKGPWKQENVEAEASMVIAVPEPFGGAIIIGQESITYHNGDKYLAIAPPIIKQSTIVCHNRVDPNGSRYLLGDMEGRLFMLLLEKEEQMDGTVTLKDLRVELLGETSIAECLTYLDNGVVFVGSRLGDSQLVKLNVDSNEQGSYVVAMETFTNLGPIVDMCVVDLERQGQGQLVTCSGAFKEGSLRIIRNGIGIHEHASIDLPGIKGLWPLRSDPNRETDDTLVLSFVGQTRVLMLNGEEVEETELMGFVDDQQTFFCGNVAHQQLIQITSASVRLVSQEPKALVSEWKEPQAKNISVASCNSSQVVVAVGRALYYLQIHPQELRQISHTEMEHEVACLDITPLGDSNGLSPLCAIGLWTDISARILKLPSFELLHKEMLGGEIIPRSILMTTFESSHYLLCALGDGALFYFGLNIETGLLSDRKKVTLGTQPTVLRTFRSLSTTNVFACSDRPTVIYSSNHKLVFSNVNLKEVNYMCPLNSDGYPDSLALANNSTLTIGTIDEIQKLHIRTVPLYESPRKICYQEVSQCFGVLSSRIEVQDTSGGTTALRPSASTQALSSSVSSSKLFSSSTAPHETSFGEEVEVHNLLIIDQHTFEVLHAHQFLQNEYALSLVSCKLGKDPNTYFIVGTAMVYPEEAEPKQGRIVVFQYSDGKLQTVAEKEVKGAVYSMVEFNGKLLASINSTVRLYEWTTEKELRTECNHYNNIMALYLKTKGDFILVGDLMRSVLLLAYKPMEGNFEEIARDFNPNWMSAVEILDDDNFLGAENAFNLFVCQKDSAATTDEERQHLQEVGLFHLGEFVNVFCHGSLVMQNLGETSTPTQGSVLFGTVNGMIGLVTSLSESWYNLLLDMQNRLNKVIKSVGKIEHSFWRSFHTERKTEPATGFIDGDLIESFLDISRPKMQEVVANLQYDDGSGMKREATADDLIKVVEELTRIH
As to the kind of experiment: Selectivity western blot assay in MM1 S cells, IKZF1. Also noted: key: A represents no degradation observed at 30 μM; B represents trace degradation at 30 μM (below 20%); C represents weak degradation at 30 μM (below 50%); D represents degradation at 30 μM (>90%); E represents degradation at 3 μM (>90%); F represents degradation at 0.3 μM (>90%). The following applies: MM1 S cells, 0.3, 3 and 30 μM, 6 hours. Type of experiment: cell-based. The procedure:
(§1) MM1 S cells were purchased from ATCC (cat. Number CRL-2974), sub-cultured in 90% RPMI 1640 with 10% FBS, supplemented with 1×P/S and incubated at 37° C., 5% CO2. Compounds were stored as 10 mM DMSO stock. For the assay, MM1 S cells (3 million cells/well) were plated in 6-well plates and incubated over night. Cells were treated with respective compounds using a serial dilution: 0.3 μM, 3 μM and 30 μM as well as a vehicle only (DMSO) control for 6 hours. Media with suspension cells was subsequently transferred to 15 mL conical tubes, wells rinsed twice with ice-cold PBS and merged with cell suspension in respective 15 mL conical tube. Cells were spinned down, supernatant aspirated, pellets resuspended in ice-cold PBS and transferred to microtubes. Cells were spinned down, supernatant aspirated and pellets resuspended in 120 μL RIPA lysis buffer supplemented with protease and phosphatase inhibitors. Cell lysates were incubated on ice for 20 minutes followed by centrifugation at >20,000×g for 5 min. Supernatants were transferred to fresh microtubes and stored at −80° C. Total protein concentration was determined using a BCA assay with a BSA standard curve and concentration of all samples was adjusted to 1 mg/mL. 25 μL 4×LDS sample buffer supplemented with 100 mM DTT was added to 75 μL sample. Samples were centrifuged (8,000×g, 1 min) and incubated at 95° C. for 5 min followed by another centrifugation step (8,000×g, 1 min). 20 μL of each sample was loaded on a 4-12% gel alongside a protein molecular weight marker. Gels were run in the presence of MOPS buffer at 80 Volts for 30 min, followed by 120 Volts for 1.5 h and proteins subsequently transferred onto nitrocellulose membranes at 20 Volts for 7 min using an iBlot2 Gel Transfer Device. Membranes were then cut horizontally into two pieces, covering 80-50 kDa and 50-25 kDa. Blocking the membranes was performed by gently shaking in 5% (w/v) skim milk in TSB-T for 1 hr at room temperature. All primary antibodies were used at a 1/1000 in 5% (w/v) BSA dissolved in TBST and incubated with membranes over night at 4° C. After three washes with 1×TBST for 5 min, HRP-coupled secondary antibodies diluted in 5% (w/v) BSA/TBST (Goat Anti-Rb IgG, dil. 1/10,000; Goat Anti-Mouse IgG, dil. 1/5000) were added for 1 hr at room temperature. After three washes with 1×TBST (5 minutes each), membranes were incubated with ECL reagent for 1 min at room temperature. Chemiluminescence signals were then detected using a LAS-4000 system with default settings and signals quantified using Image Studio Lite software (version 5.2). Membrane parts previously incubated with antibody against CK1 alpha were stripped off antibodies by incubating with stripping buffer for 30 minutes followed by three washed with TBST (5 min each), blocking with 5% (w/v) skim milk for 1 hr, and incubation with primary antibody against uGAPDH overnight at 4° C. Subsequent washes, incubation with secondary antibody and signal acquisition were performed as described above.
In general terms: A western blot detects proteins with antibodies after separation by electrophoresis.

The next experiment concerns the target T3, IKZF3 (Homo sapiens, UniProt Q96SW2+Q9UKT9).
T3 construct: endogenous in cells; host or cells: MM1 S (ATCC CRL-2974)
Put plainly: Selectivity western blot assay in MM1 S cells, IKZF3. The following applies: MM1 S cells, 0.3, 3 and 30 μM, 6 hours. It is filed as cell-based. Here is the method: as §1

The next experiment has as its target T4, CK1alpha (Homo sapiens, UniProt P48729+Q96SW2).
T4 construct: endogenous in cells; host or cells: MM1 S (ATCC CRL-2974)
Put plainly: Selectivity western blot assay in MM1 S cells, CK1alpha. It is filed as cell-based. Further details: key: A represents no degradation observed at 30 μM; B represents trace degradation at 30 μM (below 20%); C represents weak degradation at 30 μM (below 50%); D represents degradation at 30 μM (>90%); E represents degradation at 3 μM (>90%); F represents degradation at 0.3 μM (>90%). The following applies: MM1 S cells, 0.3, 3 and 30 μM, 6 hours. Here is the method: as §1

The target of the next experiment is GSPT1 (Homo sapiens, UniProt P15170+Q96SW2). Put plainly: Selectivity western blot assay in MM1 S cells, GSPT1. It is filed as cell-based. Also noted: endogenous in cells; host or cells: MM1 S (ATCC CRL-2974). The conditions noted are these: MM1 S cells, 0.3, 3 and 30 μM, 6 hours. Here is the method:
as §1

T3 sequence (Q9UKT9 whole entry): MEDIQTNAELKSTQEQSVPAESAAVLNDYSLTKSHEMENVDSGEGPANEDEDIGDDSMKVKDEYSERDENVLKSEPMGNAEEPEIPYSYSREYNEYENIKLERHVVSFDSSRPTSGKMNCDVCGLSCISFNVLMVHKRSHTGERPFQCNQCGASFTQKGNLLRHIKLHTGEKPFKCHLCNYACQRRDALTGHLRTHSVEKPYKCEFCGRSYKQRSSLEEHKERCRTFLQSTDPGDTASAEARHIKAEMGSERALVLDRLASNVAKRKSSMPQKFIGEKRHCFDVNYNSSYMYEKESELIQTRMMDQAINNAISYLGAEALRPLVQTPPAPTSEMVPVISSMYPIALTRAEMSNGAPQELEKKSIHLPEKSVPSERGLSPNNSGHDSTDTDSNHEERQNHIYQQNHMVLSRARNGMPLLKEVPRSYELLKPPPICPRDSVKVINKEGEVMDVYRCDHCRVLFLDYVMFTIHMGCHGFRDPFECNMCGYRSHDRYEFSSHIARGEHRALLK
T3 sequence (Q96SW2 whole entry): as the sequence (Q96SW2 whole entry) above
T3 sequence (Q16531 whole entry partner): as the sequence (Q16531 whole entry partner) above
T4 sequence (P48729 whole entry): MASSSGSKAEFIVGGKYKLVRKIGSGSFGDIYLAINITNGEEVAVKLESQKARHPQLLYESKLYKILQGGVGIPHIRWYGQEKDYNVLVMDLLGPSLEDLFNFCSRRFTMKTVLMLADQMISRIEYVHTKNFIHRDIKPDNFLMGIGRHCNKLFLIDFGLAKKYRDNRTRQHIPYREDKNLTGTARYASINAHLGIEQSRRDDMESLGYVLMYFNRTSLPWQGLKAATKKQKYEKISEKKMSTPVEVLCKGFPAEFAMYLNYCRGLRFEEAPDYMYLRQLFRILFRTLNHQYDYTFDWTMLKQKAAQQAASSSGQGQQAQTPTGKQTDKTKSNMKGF
T4 sequence (Q96SW2 whole entry): as the sequence (Q96SW2 whole entry) above
T4 sequence (Q16531 whole entry partner): as the sequence (Q16531 whole entry partner) above
Chain of GSPT1 (P15170 whole entry): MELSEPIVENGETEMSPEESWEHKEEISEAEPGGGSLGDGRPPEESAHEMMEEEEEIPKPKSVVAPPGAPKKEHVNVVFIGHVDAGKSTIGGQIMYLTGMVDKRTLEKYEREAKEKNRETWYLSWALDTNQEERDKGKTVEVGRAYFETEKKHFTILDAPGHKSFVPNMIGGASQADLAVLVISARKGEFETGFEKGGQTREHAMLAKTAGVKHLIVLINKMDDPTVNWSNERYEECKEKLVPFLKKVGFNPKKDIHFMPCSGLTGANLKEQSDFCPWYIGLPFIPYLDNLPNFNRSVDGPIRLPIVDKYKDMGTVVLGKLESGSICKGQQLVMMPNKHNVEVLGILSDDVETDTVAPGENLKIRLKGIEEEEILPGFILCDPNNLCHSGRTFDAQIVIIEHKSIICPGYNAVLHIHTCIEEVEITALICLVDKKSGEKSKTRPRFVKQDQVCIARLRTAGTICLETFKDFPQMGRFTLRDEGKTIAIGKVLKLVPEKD
Chain of GSPT1 (Q96SW2 whole entry): as the sequence (Q96SW2 whole entry) above
Chain of GSPT1 (Q16531 whole entry partner): as the sequence (Q16531 whole entry partner) above
T1 sequence (Q96SW2 whole entry): as the sequence (Q96SW2 whole entry) above

A word on the IC50: it is the concentration at which inhibition is half-maximal. Regarding `Cc1c(Cl)cc(NC(=O)NCc2ccc3c(c2)C(=O)N(C2CCC(=O)NC2=O)C3)cc1CN1C2CCC1COC2` (centres unmarked) [Compound 138], the IC50 in experiment [1] was below 1.1 µM. The IKZF1 degradation result at IKZF1 is listed as “C (C represents weak degradation at 30 μM (below 50%))”. Besides, the IKZF3 degradation result on IKZF3 is listed as “B (B represents trace degradation at 30 μM (below 20%))”. For the same compound, the CK1alpha degradation result on CK1alpha is given as “A”. Also, the GSPT1 degradation entry at GSPT1 was “F (F represents degradation at 0.3 μM (>90%))”.

Turning to `Cc1ccc(NC(=O)NCc2ccc3c(c2)C(=O)N(C2CCC(=O)NC2=O)C3)cc1Cl` (centres unmarked) [Compound 8], the IC50 in experiment [1] is below 1.1 µM. On IKZF1, the IKZF1 degradation result is recorded as “A”. The IKZF3 degradation result at IKZF3 is recorded as “B (B represents trace degradation at 30 μM (below 20%))”. Moreover, the CK1alpha degradation entry at CK1alpha was “A”. The GSPT1 degradation entry at GSPT1 was “F (F represents degradation at 0.3 μM (>90%))”.

Regarding `Cc1ccc(NC(=O)OCc2ccc3c(c2)C(=O)N(C2CCC(=O)NC2=O)C3)cc1Cl` (centres unmarked) [Compound 210], the IKZF1 degradation entry at IKZF1 is on record as “A”. Also, the IKZF3 degradation entry on IKZF3 was “B (B represents trace degradation at 30 μM (below 20%))”. Also, the CK1alpha degradation entry on CK1alpha is “B (B represents trace degradation at 30 μM (below 20%))”. Also, on GSPT1, the GSPT1 degradation entry was “D (D represents degradation at 30 μM (>90%))”.
